Efficacy, Activity and EC50 data for nine compounds are collected here from ChEMBL document CHEMBL4020785, “Switching subtype-selectivity: Fragment replacement strategy affords novel class of peroxisome proliferator-activated receptor α/δ (PPARα/δ) dual agonists” (Bioorg Med Chem Lett, 2017).

The target of assay [1] is T1, Peroxisome proliferator-activated receptor alpha (Homo sapiens) (UniProt Q07869).
T1 sequence (whole entry): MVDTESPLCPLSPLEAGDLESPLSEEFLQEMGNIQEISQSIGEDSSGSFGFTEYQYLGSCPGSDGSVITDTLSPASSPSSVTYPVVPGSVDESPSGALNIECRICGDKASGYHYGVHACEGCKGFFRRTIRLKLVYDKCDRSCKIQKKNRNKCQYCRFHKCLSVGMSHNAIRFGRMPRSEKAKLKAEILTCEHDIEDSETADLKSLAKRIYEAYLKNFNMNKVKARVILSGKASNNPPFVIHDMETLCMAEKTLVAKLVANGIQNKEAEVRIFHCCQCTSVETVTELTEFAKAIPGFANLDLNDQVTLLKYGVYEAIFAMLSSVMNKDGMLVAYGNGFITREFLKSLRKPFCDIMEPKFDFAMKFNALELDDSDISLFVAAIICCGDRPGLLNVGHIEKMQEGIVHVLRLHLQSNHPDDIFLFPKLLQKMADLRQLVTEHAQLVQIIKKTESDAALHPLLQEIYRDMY
As to the kind of experiment: Agonist activity at GAL4N fused human PPARalpha LBD expressed in HEK293 cells co-expressing TK-MH100x4-Luc after 24 hrs by luciferase reporter gene assay relative to GW7647. Format: cell-based. (In a reporter assay the amount or activity of a reporter protein is the signal.)

For assay [2], the target named is T2, Peroxisome proliferator-activated receptor gamma (Homo sapiens) (UniProt P37231).
T2 sequence (whole entry): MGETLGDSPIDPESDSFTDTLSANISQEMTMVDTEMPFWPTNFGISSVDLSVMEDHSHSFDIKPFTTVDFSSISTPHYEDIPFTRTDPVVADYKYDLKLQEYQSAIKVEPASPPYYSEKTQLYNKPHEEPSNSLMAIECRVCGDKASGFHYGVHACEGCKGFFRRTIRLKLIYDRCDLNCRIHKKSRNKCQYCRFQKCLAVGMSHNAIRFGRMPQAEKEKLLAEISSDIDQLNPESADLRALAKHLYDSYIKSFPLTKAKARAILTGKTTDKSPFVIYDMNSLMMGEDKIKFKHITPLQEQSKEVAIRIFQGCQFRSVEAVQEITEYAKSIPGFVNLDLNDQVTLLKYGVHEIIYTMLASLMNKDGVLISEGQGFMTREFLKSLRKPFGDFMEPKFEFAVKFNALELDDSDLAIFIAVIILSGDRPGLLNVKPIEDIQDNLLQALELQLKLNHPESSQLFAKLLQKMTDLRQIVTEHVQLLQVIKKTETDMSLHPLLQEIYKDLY
Briefly: Agonist activity at GAL4N fused human PPARgamma LBD expressed in HEK293 cells co-expressing TK-MH100x4-Luc at less than 30 uM after 24 hrs by luciferase reporter gene assay. Format: cell-based.

Assay [3] addresses T3, Peroxisome proliferator-activated receptor delta (Homo sapiens, UniProt Q03181).
T3 sequence (Q03181 whole entry): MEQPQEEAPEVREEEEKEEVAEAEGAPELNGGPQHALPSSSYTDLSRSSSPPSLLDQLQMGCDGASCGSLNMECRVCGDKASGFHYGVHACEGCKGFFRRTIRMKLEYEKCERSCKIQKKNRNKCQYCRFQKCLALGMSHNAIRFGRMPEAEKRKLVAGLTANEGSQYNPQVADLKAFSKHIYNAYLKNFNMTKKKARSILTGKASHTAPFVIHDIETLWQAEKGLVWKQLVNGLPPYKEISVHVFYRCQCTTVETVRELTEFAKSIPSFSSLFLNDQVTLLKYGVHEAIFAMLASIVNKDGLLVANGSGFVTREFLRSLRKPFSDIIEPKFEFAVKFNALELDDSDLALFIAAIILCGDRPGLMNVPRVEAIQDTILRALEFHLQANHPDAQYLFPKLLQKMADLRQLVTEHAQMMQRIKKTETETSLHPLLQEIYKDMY
Briefly: Agonist activity at GAL4N fused human PPARdelta LBD expressed in HEK293 cells co-expressing TK-MH100x4-Luc after 24 hrs by luciferase reporter gene assay. Format: cell-based.

Assay [4] concerns the target T4, Peroxisome proliferator-activated receptor delta (Homo sapiens) (UniProt Q03181).
T4 sequence (whole entry): T3 sequence (Q03181 whole entry)
As to the kind of experiment: Agonist activity at GAL4N fused human PPARdelta LBD expressed in HEK293 cells co-expressing TK-MH100x4-Luc after 24 hrs by luciferase reporter gene assay relative to GW501516. Format: cell-based.

Assay [5] deals with T5, Peroxisome proliferator-activated receptor alpha (Homo sapiens, UniProt Q07869).
T5 sequence (Q07869 whole entry): T1 sequence (whole entry)
Briefly: Agonist activity at GAL4N fused human PPARalpha LBD expressed in HEK293 cells co-expressing TK-MH100x4-Luc after 24 hrs by luciferase reporter gene assay. The class given is cell-based.

Assay [6] addresses T2, Peroxisome proliferator-activated receptor gamma (Homo sapiens). Briefly: Agonist activity at GAL4N fused human PPARgamma LBD expressed in HEK293 cells co-expressing TK-MH100x4-Luc after 24 hrs by luciferase reporter gene assay relative to rosiglitazone. Format: cell-based.
Assay [7] has as its target T4, Peroxisome proliferator-activated receptor delta (Homo sapiens). As to the kind of experiment: Agonist activity at GAL4N fused human PPARdelta LBD expressed in HEK293 cells co-expressing TK-MH100x4-Luc at 50 uM after 24 hrs by luciferase reporter gene assay relative to control. Format: cell-based.
The target of assay [8] is T6, Peroxisome proliferator-activated receptor gamma (Homo sapiens, UniProt P37231).
T6 sequence (P37231 whole entry): T2 sequence (whole entry)
Briefly: Agonist activity at GAL4N fused human PPARgamma LBD expressed in HEK293 cells co-expressing TK-MH100x4-Luc after 24 hrs by luciferase reporter gene assay. The class given is cell-based.

For assay [9], the target named is T7, Peroxisome proliferator-activated receptor alpha (Mus musculus, UniProt P23204).
T7 sequence (P23204 whole entry): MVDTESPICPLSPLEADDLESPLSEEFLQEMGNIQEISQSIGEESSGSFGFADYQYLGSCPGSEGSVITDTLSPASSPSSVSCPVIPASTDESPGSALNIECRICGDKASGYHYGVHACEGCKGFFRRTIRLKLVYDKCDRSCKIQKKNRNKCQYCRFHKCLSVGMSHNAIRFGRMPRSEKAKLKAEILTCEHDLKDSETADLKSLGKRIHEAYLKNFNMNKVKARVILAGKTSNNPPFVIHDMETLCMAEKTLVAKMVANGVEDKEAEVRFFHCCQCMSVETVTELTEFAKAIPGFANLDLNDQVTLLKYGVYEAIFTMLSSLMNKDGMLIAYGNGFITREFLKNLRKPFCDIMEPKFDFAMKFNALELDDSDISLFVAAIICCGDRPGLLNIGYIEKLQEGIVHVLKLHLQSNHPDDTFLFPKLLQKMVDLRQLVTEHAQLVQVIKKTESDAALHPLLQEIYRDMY
Briefly: Agonist activity at 3' GAL4 DNA binding domain fused mouse PPARalpha LBD expressed in U-2 OS cells after 40 hrs by luciferase reporter gene assay. Format: cell-based.

For assay [10], the target named is T5, Peroxisome proliferator-activated receptor alpha.
For assay [11], the target named is T4, Peroxisome proliferator-activated receptor delta (Homo sapiens). Briefly: Agonist activity at GAL4N fused human PPARdelta LBD expressed in HEK293 cells co-expressing TK-MH100x4-Luc at less than 30 uM after 24 hrs by luciferase reporter gene assay. Format: cell-based.
For assay [12], the target named is T1, Peroxisome proliferator-activated receptor alpha (Homo sapiens). Briefly: Agonist activity at GAL4N fused human PPARalpha LBD expressed in HEK293 cells co-expressing TK-MH100x4-Luc at less than 30 uM after 24 hrs by luciferase reporter gene assay. The class given is cell-based.

Active and inactive are the calls of the source. No cut-off for these calls is given here.

What is called EC50 is the concentration that produces a half-maximal response. High values mean lower potency in that assay, low ones higher potency in that assay. On to `CC(=O)NC(C)c1nc(-c2ccc(OCCc3ccc(OS(C)(=O)=O)cc3)cc2)no1` (stereo unspecified), for which the Efficacy in assay [1] is 13 to 37%; in assay [4], 7 to 18%. The outcome in assay [2] was inactive. Further, the EC50 worked out at 1600 nM in assay [3] and 1200 nM in assay [5].

Take `CC(=O)NC(C)c1nc(-c2ccc(OCCCOc3ccc(Oc4ccccc4)cc3)cc2)no1` (stereo unspecified): the values for the Efficacy in assay [1] and in assay [4] were 17 to 27% and 2 to 11%, respectively. Further, the result in assay [2] was inactive. Moreover, the EC50 in assay [3] came out at 320 nM; in [5], 240 nM.

Take `CC(=O)NC(C)c1nc(-c2ccc(OCC=C(c3ccc(Br)cc3)c3ccc(Br)cc3)cc2)no1` (stereo unspecified): the Efficacy in assay [1] is 3 to 15%; in assay [4] it was 5 to 14%. Also, in assay [2], the result was inactive. Moreover, the EC50 in assay [3] is 970 nM; in assay [5], 880 nM.

Consider `CC(=O)N[C@@H](C)c1nc(-c2ccc(OCCc3ccc(OS(C)(=O)=O)cc3)cc2)no1`, for which the Efficacy in assay [1] was in the range of 13 to 33%; in assay [4] it was 4 to 19%. For the same compound, in assay [2], the outcome was inactive. For the same compound, the EC50 came to 990 nM in assay [3] and 450 nM in [5].

Take `CCO[C@@H](Cc1ccc(OCCc2ccc(OS(C)(=O)=O)cc2)cc1)C(=O)O` [TESAGLITAZAR]: the values for the Efficacy in [6], in [1] and in [7] were 119 to 130%, 122 to 186% and 38%, respectively. Further, the half-maximal effective concentration (EC50) amounted to 360 nM in assay [8], 3800 nM in assay [5] and 1700 nM in assay [9].

On to `CCOC(Cc1ccc(Oc2ccc(OCc3ccccc3)cc2)cc1)C(=O)O` (stereo unspecified), for which the Efficacy in [6] fell in the range of 39 to 51%; in assay [1] it was 87 to 129%; in assay [4], 16 to 45%. For the same compound, the EC50 was determined as 31000 nM in assay [3], 18000 nM in assay [8] and 5400 nM in [5].

Consider `CC(=O)NC(C)c1nc(-c2ccc(OCCN3c4ccccc4Oc4ccccc43)cc2)no1` (stereo unspecified), for which the Efficacy in [1] fell in the range of 7 to 17%; in assay [4], 2 to 9%. Moreover, the result in assay [2] was inactive. In addition, the EC50 in assay [3] turned out to be 450 nM; in [5], 470 nM.

With `CCO[C@@H](Cc1ccc(OCCN2c3ccccc3Oc3ccccc32)cc1)C(=O)O` [RAGAGLITAZAR], in assay [10], a half-maximal effect (EC50) was put at 2800 nM.

For `CC(=O)N[C@H](C)c1nc(-c2ccc(OCCc3ccc(OS(C)(=O)=O)cc3)cc2)no1`, the result in assay [11], in [2] and in [12] was inactive.
